Experimental findings from PMC12040169 (PLOS Biology, 2025) are described below.

The first series can be described thus: in vitro. The following applies: human, hela cells, % viability.
By viability is commonly meant a read-out of living cells in per cent, often relative to untreated cells. With `CN(C)CCCNC(=O)c1cc(-c2ccc(Cl)cc2)[nH]n1` [CBK116564T], the viability at 28.5 h, 10 µM came out at 98.5%.

Take `FC(F)(F)c1ccnc(OCc2ccc(Cl)c(Cl)c2)c1` [CBK116623]: the viability at 28.5 h, 10 µM came out at 89.2%.

As to `FC(F)(F)c1ccnc(OCCc2c[nH]c3ccccc23)n1` [CBK116625], the viability at 28.5 h, 10 µM is 80.2%.

As for `CN(C)CCNC(=O)c1cc(-c2ccc(Cl)cc2)on1` [CBK116711T], the viability at 28.5 h, 10 µM was found to be 89.7%.

Take `COc1cc2cc3c(N)c(C(=O)N4CCCc5ccccc54)sc3nc2cc1OC` [CBK117298]: the viability at 28.5 h, 10 µM was found to be 102%.

Regarding `O=C(Nc1ccccc1Cl)N1CCN(c2ccc(F)cc2)CC1` [CBK117849], the viability at 28.5 h, 10 µM was 95.7%.

On to `COc1c(Br)cc(Br)cc1/C=C1/SC(=N)NC1=O` [CBK119298], for which the viability at 28.5 h, 10 µM worked out at 94.4%.

Turning to `O=C(Nc1c(F)cccc1F)N(Cc1ccc2ccccc2c1)CC1CCNCC1` [CBK119480], the viability at 28.5 h, 10 µM was 100%.

For the molecule `COc1cc2cc3c(N)c(C(=O)NCc4cccs4)sc3nc2cc1OC` [CBK120215], the viability at 28.5 h, 10 µM turned out to be 92%.

In the case of `Fc1ccc(CN2C3CCCC2CC(NC(=S)NC2CCCCC2)C3)cc1` (centres unmarked) [CBK121172], the viability at 28.5 h, 10 µM was 90%.

Take `Cc1cccc(C)c1NC(=O)Cn1nnc(-c2ccc(CN3CCC(C)CC3)cc2)n1` [CBK121194]: the viability at 28.5 h, 10 µM worked out at 87.2%.

Consider `CCOc1ccc(C(=O)NC2CC3CCC(C2)N3Cc2ccc(OC)cc2)cc1` (centres unmarked) [CBK121398], for which the viability at 28.5 h, 10 µM amounted to 109%.

Turning to `O=C(c1ccc(F)cc1)N1C2CCC1CC(O)(c1ccccc1F)C2` (centres unmarked) [CBK121719], the viability at 28.5 h, 10 µM came out at 102%.

`CCCCC1CCC(C(=O)O)CC1` (centres unmarked) [CBK122493]: the viability at 28.5 h, 10 µM is 82.4%.

Turning to `Nc1ncc(-c2ccc(OC(F)(F)F)cc2)nc1-c1ccc(O)cc1` [CBK122506], the viability at 28.5 h, 10 µM was found to be 95.8%.

With `Cc1ccc(S(=O)(=O)N2CCOCC2)cc1-c1cnc(N)c(-c2ccc(O)cc2)n1` [CBK122519], the viability at 28.5 h, 10 µM was determined as 98.7%.

For `CCCCSc1sc(C(=O)O)c(-c2ccc(Cl)cc2)c1C#N` [CBK122551], the viability at 28.5 h, 10 µM was found to be 94.1%.

`CC(C)(C)OC(=O)N1CCC(Sc2ccc(-c3ccco3)cc2)CC1` [CBK122552]: the viability at 28.5 h, 10 µM is 85.6%.

In the case of `COc1cc(Nc2cncc(-c3ccc(O)cc3)n2)c(Cl)cc1C(=O)NCCCN(C)C` [CBK122651], the viability at 28.5 h, 10 µM is 81.1%.

For the molecule `CCN(CC)CCNC(=O)c1ccc(Nc2cncc(-c3ccc(O)cc3)n2)c(OC)c1` [CBK122659], the viability at 28.5 h, 10 µM came to 82.2%.

Regarding `COc1cc(C(=O)NCCN2CCCC2)ccc1Nc1cncc(-c2ccc(O)cc2)n1` [CBK122661], the viability at 28.5 h, 10 µM is 96%.

Take `O=C(NCCN1CCCC1)c1ccc(Nc2cncc(-c3ccc(O)cc3)n2)c(Cl)c1` [CBK122666]: the viability at 28.5 h, 10 µM was 85.4%.

`CN(C)CCCNC(=O)c1cccc(Nc2cncc(-c3ccc(O)cc3)n2)c1` [CBK122669]: the viability at 28.5 h, 10 µM amounted to 87.7%.

Take `CCC1(CC)OC(N[C@@H](C)c2ccccc2C(F)(F)F)=NC1=O` [CBK122691]: the viability at 28.5 h, 10 µM was found to be 91.2%.

Regarding `CCN1CC2(CCN(CCOc3ccccc3)CC2)c2ccccc21` [CBK122705], the viability at 28.5 h, 10 µM turned out to be 100%.

As for `COc1ccc2[nH]cc(CCNC(=O)c3cncnc3)c2c1` [CBK122720], the viability at 28.5 h, 10 µM is 87.1%.

Take `COc1ccc2[nH]cc(CC(=O)Nc3cc(C)nc4ccccc34)c2c1` [CBK122732]: the viability at 28.5 h, 10 µM is 88.8%.

For the molecule `Cc1cc(NC(=O)c2cncnc2)c2ccccc2n1` [CBK122734], the viability at 28.5 h, 10 µM was 103%.

Consider `O=C(Nc1ccc2cccc(O)c2n1)c1cc[nH]c1` [CBK122743], for which the viability at 28.5 h, 10 µM came out at 94.9%.

Consider `O=C1CN(c2cccc(C(F)(F)F)c2)C(=O)N1c1ccc(Cl)cc1` [CBK122769], for which the viability at 28.5 h, 10 µM was determined as 108%.

For `O=c1[nH]n(-c2ccccc2)c(=O)n1Cc1ccccc1F` [CBK122770], the viability at 28.5 h, 10 µM was determined as 95%.

Consider `COc1cccc(Cn2c(=O)[nH]n(-c3ccccc3)c2=O)c1` [CBK122771], for which the viability at 28.5 h, 10 µM was found to be 97.7%.

For `C=CCn1oc(=O)n(-c2ccc(OC)cc2)c1=O` [CBK122773], the viability at 28.5 h, 10 µM amounted to 89.4%.

As to `Cc1cc(NCc2ccc(C(C)C)cc2)c2ccccc2n1` [CBK122786], the viability at 28.5 h, 10 µM came to 91.7%.

As to `Cc1ccc(S(=O)(=O)N2CCOCC2)cc1-c1cncc(-c2ccc(O)cc2)n1` [CBK123789], the viability at 28.5 h, 10 µM stood at 103%.

With `O=C(c1ccc(-c2cncc(-c3ccc(O)cc3)n2)cc1Cl)N1CCOCC1` [CBK123790], the viability at 28.5 h, 10 µM came to 94%.

Turning to `Oc1ccc(-c2cncc(-c3ccc(F)cc3)n2)cc1` [CBK123794], the viability at 28.5 h, 10 µM was 93.7%.

As for `Nc1ncc(-c2ccc(CN3CCOCC3)cc2)nc1-c1ccc(O)cc1` [CBK123798], the viability at 28.5 h, 10 µM stood at 93.9%.

In the case of `COC(=O)/C=C/c1cccc(-c2cnc(N)c(-c3ccc(O)cc3)n2)c1` [CBK125689], the viability at 28.5 h, 10 µM stood at 83.7%.

As for `CN1CCN(C(=O)c2ccc(Cl)cc2)CC1` [CBK126096], the viability at 28.5 h, 10 µM stood at 104%.

With `c1ccc(CC2CCN(Cc3cccnc3)CC2)cc1` [CBK126381], the viability at 28.5 h, 10 µM turned out to be 95.9%.

As for `C(=C\c1ccccc1)/CN1CCC(Cc2ccccc2)CC1` [CBK126384], the viability at 28.5 h, 10 µM was determined as 119%.

As to `O=c1cc(CN2CCC(Cc3ccccc3)CC2)[nH]c(=O)[nH]1` [CBK126388], the viability at 28.5 h, 10 µM worked out at 104%.

Take `COc1cc2c(cc1OC)CN(Cc1nc3ccccc3[nH]1)CC2` [CBK126390]: the viability at 28.5 h, 10 µM came to 91%.

Regarding `COc1cc2c(cc1OC)CN(Cc1cc(=O)[nH]c(=O)[nH]1)CC2` [CBK126393], the viability at 28.5 h, 10 µM stood at 103%.

With `O=c1cc(CN2CCc3ccccc3C2)[nH]c(=O)[nH]1` [CBK126401], the viability at 28.5 h, 10 µM worked out at 94%.

Turning to `COc1ccc(Cl)cc1N1CCN(Cc2ccc(OC(F)(F)F)cc2)CC1` [CBK126405], the viability at 28.5 h, 10 µM is 104%.

Turning to `COc1ccc(Cl)cc1N1CCN(Cc2cc(OC)c(OC)c(OC)c2)CC1` [CBK126406], the viability at 28.5 h, 10 µM is 43.3%.

`COc1ccc(Cl)cc1N1CCN(Cc2ccc(C(C)C)cc2)CC1` [CBK126407]: the viability at 28.5 h, 10 µM turned out to be 97.6%.

For the molecule `COc1ccc(Cl)cc1N1CCN(Cc2ccc3ccccc3c2)CC1` [CBK126414], the viability at 28.5 h, 10 µM turned out to be 116%.

Take `COc1ccc(Cl)cc1N1CCN(C/C=C/c2ccccc2)CC1` [CBK126415]: the viability at 28.5 h, 10 µM was found to be 90.3%.

For `FC(F)(F)c1cccc(CN2CCN(CCc3ccccc3)CC2)c1` [CBK126421], the viability at 28.5 h, 10 µM was 99.7%.

`Fc1cccc(F)c1CN1CCN(CCc2ccccc2)CC1` [CBK126422]: the viability at 28.5 h, 10 µM is 89.9%.

`Cc1cc(CN2CCN(CCc3ccccc3)CC2)no1` [CBK126426]: the viability at 28.5 h, 10 µM worked out at 85.8%.

For the molecule `NC(=O)CN1CCN(CCc2ccccc2)CC1` [CBK126429], the viability at 28.5 h, 10 µM is 88.4%.

Regarding `O=C1NC(=O)C(CCCCN2CCC(Cc3ccccc3)CC2)N1` (centres unmarked) [CBK126435], the viability at 28.5 h, 10 µM came to 91.8%.

`Cc1nc(CN2CCC(Cc3ccccc3)CC2)cs1` [CBK126438]: the viability at 28.5 h, 10 µM came out at 95.7%.

As to `COc1cc2c(cc1OC)CN(Cc1csc(C)n1)CC2` [CBK126443], the viability at 28.5 h, 10 µM is 93.4%.

Take `COc1ccc(Cl)cc1N1CCN(CCN2CCCCC2)CC1` [CBK126445]: the viability at 28.5 h, 10 µM was found to be 100%.

With `COc1ccc(Cl)cc1N1CCN(CCCCC2NC(=O)NC2=O)CC1` (centres unmarked) [CBK126448], the viability at 28.5 h, 10 µM was found to be 89.4%.

With `COc1cccc(CN2CCN(CCc3ccccc3)CC2)c1` [CBK126454], the viability at 28.5 h, 10 µM was 90.5%.

For the molecule `Cc1nc(CN2CCN(CCc3ccccc3)CC2)cs1` [CBK126457], the viability at 28.5 h, 10 µM was 87.6%.

Take `COc1ccc(CN2CCCc3ccccc32)cc1` [CBK126458]: the viability at 28.5 h, 10 µM came to 95.6%.

As to `CCOC(=O)CN(Cc1ccccc1)Cc1cccc(OC)c1` [CBK126459], the viability at 28.5 h, 10 µM came out at 96.4%.

Consider `O=[N+]([O-])c1cccc(-c2ccc(OC3CCNCC3)cc2)c1` [CBK126465T], for which the viability at 28.5 h, 10 µM amounted to 98.8%.

Turning to `CCc1nnc(NS(=O)(=O)c2ccc(NCc3cc(Cl)cc(Cl)c3O)cc2)s1` [CBK126494], the viability at 28.5 h, 10 µM is 112%.

`COc1ccc(CCNC(=O)c2cccc(-c3ccc(OC4CCNCC4)cc3)n2)cc1OC` [CBK126548T]: the viability at 28.5 h, 10 µM turned out to be 91.7%.

For `CCC1(CC)OC(NC2CCCc3ccccc32)=NC1=O` (centres unmarked) [CBK126555], the viability at 28.5 h, 10 µM was 99.1%.

`CCC1(CC)OC(N[C@@H](C)c2ccc(Br)cc2)=NC1=O` [CBK126665]: the viability at 28.5 h, 10 µM turned out to be 102%.

Take `CCC1(CC)OC(N[C@@H](C)c2ccc(Cl)cc2)=NC1=O` [CBK126666]: the viability at 28.5 h, 10 µM turned out to be 93.2%.

Take `COc1cc(CN2CCC3(CC2)CN(S(C)(=O)=O)c2ccccc23)cc(OC)c1OC` [CBK126669]: the viability at 28.5 h, 10 µM came to 100%.

On to `CS(=O)(=O)N1CC2(CCN(Cc3cc(=O)[nH]c(=O)[nH]3)CC2)c2ccccc21` [CBK126679], for which the viability at 28.5 h, 10 µM was 103%.

As to `COc1ccc(OCCN2CCC3(CC2)CN(S(C)(=O)=O)c2ccccc23)cc1` [CBK126681], the viability at 28.5 h, 10 µM came out at 95.5%.

Consider `CS(=O)(=O)N1CC2(CCN(CCCCC3NC(=O)NC3=O)CC2)c2ccccc21` (centres unmarked) [CBK126684], for which the viability at 28.5 h, 10 µM turned out to be 97.1%.

Regarding `CN(C)C(=O)CN1CCC2(CC1)CN(S(C)(=O)=O)c1ccccc12` [CBK126686], the viability at 28.5 h, 10 µM is 97.7%.

Turning to `Cc1nc(CN2CCC3(CC2)CN(S(C)(=O)=O)c2ccccc23)cs1` [CBK126687], the viability at 28.5 h, 10 µM amounted to 96.3%.

In the case of `CCNC(=O)N1CC2(CCN(Cc3ccc(OC(F)(F)F)cc3)CC2)c2ccccc21` [CBK126688], the viability at 28.5 h, 10 µM is 115%.

As for `CCNC(=O)N1CC2(CCN(Cc3cc(OC)c(OC)c(OC)c3)CC2)c2ccccc21` [CBK126689], the viability at 28.5 h, 10 µM was found to be 96.5%.

On to `CCNC(=O)N1CC2(CCN(Cc3ccc(Cl)c(Cl)c3)CC2)c2ccccc21` [CBK126690], for which the viability at 28.5 h, 10 µM is 95.4%.

Still in this series, the particulars now being: human, hela cells, % viability, bulk resorufin, single well.
For `CC(=O)Nc1ccc(-c2ccc3c(c2)COC2(CCN(C(=O)Cc4ccc(F)cc4F)CC2)O3)cc1` [CBK122474], the viability at 28.5 h, 10 µM is 102%.
